Test results as given in US7968556B2, “Heteroaryl compounds, compositions thereof, and methods of treatment therewith” (Signal Pharmaceuticals, LLC, priority 2006, dated 2011).

How the values were obtained:
mTOR = mTOR (Homo sapiens, UniProt P42345); assay: mTOR HTR-FRET Assay; type: biochemical
Summary of the method: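 TOR enzyme fraction preincubated 30 min at room temperature with compound, then reaction started with GST-p70S6 kinase fragment substrate (97 nM working stock) plus ATP/Mn2+ and run 2 h at room temperature in Tris pH 7.4 buffer. Stopped with EDTA; phospho-substrate detected by HTRF antibody reagent after 5 h to overnight.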

Tyk2 = target: T1, Tyk2 (Homo sapiens, UniProt P29597); assay: Tyk2 HTRF Assay; type: biochemical
T1 construct: 450 ng/ml TYK2 KD (Cama Biosciences 08-147 Lot 06CBS-3022D); purchased Cama Biosciences (so in the source)
T1 sequence (P29597 897-1176 limits assumed): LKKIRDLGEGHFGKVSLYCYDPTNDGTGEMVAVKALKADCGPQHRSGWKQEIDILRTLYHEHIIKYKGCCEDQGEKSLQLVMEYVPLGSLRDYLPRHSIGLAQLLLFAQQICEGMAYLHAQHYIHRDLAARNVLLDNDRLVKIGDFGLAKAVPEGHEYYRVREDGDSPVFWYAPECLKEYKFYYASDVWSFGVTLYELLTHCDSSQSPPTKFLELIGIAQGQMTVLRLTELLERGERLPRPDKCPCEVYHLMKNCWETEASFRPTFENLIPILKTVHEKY
Protocol: The following is an example of an assay that can be used to determine the Tyk2 inhibitory activity of a test compound.
25 μl/well DMSO is added to Columns 2 and 14 (except 28.5 μl is added to well P14 of Greiner 384-well polypropylene plate). 20 μl/well DMSO is added to all remaining wells.
5 mM compound solutions are added by addition of 5 μl of 30 mM compound to 25 μl DMSO in Columns 2 and 14 of plate. 1.5 mM reference control is prepared by addition of 1.5 μl of 30 mM JAK3 Inhibitor VI to 28.5 μl DMSO in Well P14.
(§1) Serial dilution is then performed by the following steps: (i) Compounds in Column 2 are mixed by pipetting 20 μl up and down 6X; (ii) 10 μl/well compounds in DMSO are transferred from one column to the next column for Columns 2-11; (iii) wells are mixed by pipetting 20 μl up and down 6×; (iv) tips are washed 3×25 μl DMSO, 2×25 μl next DMSO; (v) steps i-iv repeated for Columns 14-23.
(§2) The following buffers are prepared:
Assay Buffer: 50 mM HEPES pH 7.6; 1 mM DTT; 10 mM MgCl2; 0.01% Triton X100; 0.01% BSA; and 0.1 mM EDTA.
Kinase in Assay Buffer: 450 ng/ml TYK2 KD (Cama Biosciences 08-147 Lot 06CBS-3022D).
Substrate/Detection Mixture (1×ATP) in Assay Buffer: 188 nM DyLight 647-Streptavidin (Pierce 21824); 5 μM Biotin-EQEDEPEGDYFEWLE (Lyn Substrate Peptide); 750 ng/ml Eu-anti-phospho-Tyrosine (PerkinElmer AD0069); 62.5 μM ATP; 80 nM Substrate Peptide (American Peptide Company 332722).
Substrate/Detection Mixture (20×ATP) in Assay Buffer: 188 nM DyLight 647-Streptavidin; 5 μM Biotin-EQEDEPEGDYFEWLE; 750 ng/ml Eu-anti-phospho-Tyrosine; 1250 μM ATP; 80 nM Substrate Peptide.
14.5 μl/well Enzyme Mix or Dilution Buffer (Background Controls) is added to Costar 384 well black plates.
(§3) Compound addition and mixture is performed by the following steps: (i) 0.5 μl/well DMSO/compounds in DMSO is transferred from Greiner 384-well polypropylene plate to a plate containing 14.5 μl/well Enzyme Mix and Dilution Buffer; (ii) mixed by pipetting 10 μl up and down 4×; (iii) tips are washed 4×10 μl in DMSO, 2×20 μl in other DMSO; (iv) steps i-iii are repeated until all plates are completed.
10 μl/well Substrate/Detection Mixtures is added and incubated at room temperature 2 hours (on shaker for first 2+ minutes).
10 μl/well 50 mM EDTA/0.01% Triton X100 is added and incubated >15 minutes at room temperature (on shaker for first 2+ minutes).
Plates are read at 665 nm and 620 nm emission on Analyst GT protocol HTRF_SP_A (Counts= 665/620×10000).

Syk = target: T2, Syk (Homo sapiens, UniProt P43405); assay: Syk HTRF Assay; type: biochemical
T2 construct: purchased Cama Biosciences (so in the source)
Protocol: 5 μl/well DMSO is added to Column 2 Wells A-0 and 29.5 μl to well P2 of Greiner 384-well polypropylene plate. 20 μl/well DMSO is added to Columns 1 and 3-12.
25 mM compound solutions are prepared by the addition of 25 μl of 30 mM compound to Column 2 and 0.5 μl 30 mM reference control to well P2.
as §1, with “compounds” for “Compounds”, “6×;” for “6X;”, “tips” for “tips are”, “DMSO.” for “DMSO; (v) steps i-iv repeated for Columns 14-23.”
as §2
Dilution Buffer: 50 mM HEPES pH 7.6; 1 mM DTT; 10 mM MgCl2; 0.01% Triton X100; 0.01% BSA; 0.1 mM EDTA.
Enzyme Mix in Dilution Buffer: 8.621 ng/ml Syk (Cama Biosciences 08-176).
Start Mix in Dilution Buffer: 87.5 μM ATP; 80 nM Substrate Peptide (American Peptide Company 332722).
14.5 μl/well Enzyme Mix or Dilution Buffer (Background Controls) is added to Costar 384-well black plates.
as §3, with “DMSO” for “DMSO is”, “to left half of assay” for “to a”, “(ii) Mix” for “(ii) mixed”, “repeated with transfer to right half of assay plate; (v) steps i-iv are repeated with each compound/assay plate” for “repeated”
10 μl/well Start Mix is added and incubated at room temperature on shaker for 2 minutes (1 hour total reaction time).
Stop Solution in Dilution Buffer: 120 mM EDTA
Antibody Mix in Dilution Buffer: 4.86 μg/ml DyLight 647 Streptavidin (Pierce 21824); 1 μg/ml Lance Eu-Anti-Phosphotyrosine (PerkinElmer AD0069).
5 μl/well[…] is added and incubated at room temperature on shaker for 2 minutes.
[…] Antibody Mix is added and Incubated at room temperature on shaker for 2 minutes (4 hours to overnight total time).
Plates are read at 665 nm and 620 nm emission on Analyst GT protocol HTRF_SP_A or EnVision protocol Steve's TR-FRET.

COc1ccccc1-n1c(=O)[nH]c2c(C(N)=O)nc(-c3cccc(O)c3F)nc21 [Compound 77, 2-(2-Fluoro-3-hydroxyphenyl)-9-(2-methoxyphenyl)-8-oxo-7-hydropurine-6-carbox-amide]
melting point: > 300 °C | IC50 (mTOR): 0.1 to 5 µM | IC50 (Tyk2): 0.1 to 5 µM

COc1ccccc1-n1c(=O)[nH]c2c(C(N)=O)nc(-c3cccc(N)c3)nc21 [Compound 38, 2-(3-aminophenyl)-9-(2-methoxyphenyl)-8-oxo-8,9-dihydro-7H-purine-6-carboxamide]
IC50 (Syk): > 30 µM | melting point: 284 to 285 °C

NC(=O)c1nc(-c2ccc3nc[nH]c3c2)nc2c1[nH]c(=O)n2-c1ccccc1F [Compound 101, 2-(1H-benzo[d]imidazol-6-yl)-9-(2-fluorophenyl)-8-oxo-8,9-dihydro-7H-purine-6-carboxamide]
IC50 (Syk): 10.1 to 20 µM | melting point: 278 °C | IC50 (mTOR): 0.1 to 5 µM

COc1ccccc1-n1c(=O)[nH]c2c(C(N)=O)nc(-c3cccc(O)c3Cl)nc21 [Compound 54, 2-(2-Chloro-3-hydroxyphenyl)-9-(2-methoxyphenyl)-8-oxo-7-hydropurine-6-carbox amide]
IC50 (Syk): 0.1 to 5 µM | melting point: 331 to 334 °C | IC50 (mTOR): 0.1 to 5 µM

CNC(=O)c1nc(-c2cccc(O)c2)nc2c1[nH]c(=O)n2-c1ccccc1OC [Compound 42, [2-(3-Hydroxyphenyl)-9-(2-methoxyphenyl)-8-oxo(7-hydropurin-6-yl)]-N-methylcarbox-amide]
melting point: 339 °C | IC50 (mTOR): > 30 µM | IC50 (Tyk2): > 30 µM

NC(=O)c1nc(-c2cccc(O)c2)nc2c1[nH]c(=O)n2[C@H]1CC[C@H](O)CC1 [Compound 47, 9-(trans-4-Hydroxycyclohexyl)-2-(3-hydroxyphenyl)-8-oxo-8,9-dihydro-7H-purine-6-carboxamide]
melting point: 366 to 368 °C | IC50 (mTOR): 0.1 to 5 µM | IC50 (Tyk2): 10.1 to 20 µM
